Literature values as cited in patent US9907752B2, “Bendamustine solid dispersions and continuous infusion” (priority 2014, dated 2018).
In brackets after ≈: the same amount, converted by molar mass.

Tests used:
[1] = aqueous solution

Compound	solubility in DMSO (DMSO)	solubility in water (water)	hydrolysis reaction half times [1]
OC[C@@H](O)[C@@H](O)[C@H](O)[C@H](O)CO [mannitol]	~36 mg/mL (≈ 198 mM)	~36 mg/mL (≈ 198 mM)	
Cn1c(CCCC(=O)O)nc2cc(N(CCCl)CCCl)ccc21 [bendamustine, 4-{5-[Bis(2-chloroethyl)amino]-1-methyl-2-benzimidazolyl}butyric acid]			measured in hours rather than seconds
